Assay results taken from US20060211606A1, “Peptides” (priority 2005, published 2006).
*1 amine or outer side, *2 acyl side, *3 side chain or, on linkers, in order; H or OH if unused. [ ]: non-standard residue; d: D form. PEG (Jeffamine) = not defined here; Suc = O=C(CCC(=O)[*:2])[*:1]

Experiments:
CA1 hippocampal neurones = test: Gerbil model of brain ischemia, intact CA1 hippocampal neurones; type: in vivo, Mongolian gerbils; settings: 25 μg injection, 7 days after the insult
Experimental: Other experiments were carried out using a Gerbil model of brain ischemia.
In the gerbil brain, bilateral ligation of the common carotid arteries invariably produces specific hippocampal lesions: in the CA1 region, pyramidal neurones start to die 3-4 days after ischemia.
Male Mongolian gerbils weighing 50-60 g were used. The ischemic insult was performed by 5 min. ligation of the common carotid arteries under halotane in N2O:O2 (70:30) anaesthesia in strictly controlled normothermic conditions as previously described (Domańiska-Janik et al., 2004). The cerebral blood flow was continuously monitored by laser Doppler flowmetry (Muro, Inc.). […] Sham operated animals were injected with the same dose of the peptide.
The animals were allowed a recovery period of one week, then were perfused with ice-cold 4% paraformaldehyde in PBS under pentobarbital anaesthesia. The histological evaluation was performed on paraffin-embedded and fixed, 10 mm-thick sections stained by hematoxylline/eosine. The extent of cell damage in the CA1 hippocampal region was quantified, under a Zeiss Axioscop 2, as the mean number of the persisted, intact neurons in the coronal sections. At least three defined 300 μm fields of the CA1 region were captured using a MC 10095 camera (Carl Zeiss Jena GmbH) and counted in a computer-assisted image analysis system (KS 300, Carl Zeiss Jena GmbH).

[1] = system: Human Skeletal Muscle Myoblasts (HSMM); test: HSMM proliferation, BrdU incorporation; type: cell-based; settings: 48 hours; A5 significant (P<0.1) at doses of 10 ng/ml and below; IGF-I alone 0.1, 10 and 100 ng/ml
Experimental: (A) Peptide A5: HSMM cells at 500 cells/well. Cultivation was carried out for 24 hours in 10% FCS, followed by two washes in serum free medium, stimulation for 48 hours and then treatment with BrdU for 5 hours. Concentrations of 0.1, 1, 10, 100 and 500 ng/ml of peptide A5 were tested, along with 0.1, 1, 10 and 100 ng/ml IGF-I. BrdU incorporation was measured to assess the level of cell proliferation achieved. Controls containing medium only, no cells (BLK), background staining (BG) and 10% FBS were also provided. Values on the Y-axis are for fluorescence (absorbence at 370 nm; mean plus standard error across 4 wells). The first five columns relate to peptide A5 at concentrations of 0.1, 1, 10, 100 and 500 ng/ml. The next column relates to the control containing medium only. The next three relate to IGF-I (See Example 1.5) alone at concentrations of 100, 10 and 0.1 ng/ml. The next three relate to controls containing 10% FBS, background staining and no cells respectively. * means P<0.05 compared to medium only control.
(§1) (B) Peptide AS: HSMM cells at 500 cells/well. […] Concentrations of 0.1, 1, 10, 100 and 500 ng/ml of peptide AS in combination with 2 ng/ml IGF-I were tested, along with 0.1, 1, 10 and 100 ng/ml IGF-I. BrdU incorporation was measured to assess the level of cell proliferation achieved. […] Values on the Y-axis are for fluorescence (absorbence at 370 nm; mean plus standard error across 4 wells). […]
as §1, with “(A)” for “(B)”, “AS” for “AS in combination with 2 ng/ml IGF-I”
(B) Peptide A5: HSMM cells at 500 cells/well. […] Concentrations of 0.1, 1, 10, 100 and 500 ng/ml of peptide AS in combination with 2 ng/ml IGF-I were tested, along with 0.1, 1, 10 and 100 ng/ml IGF-I. BrdU incorporation was measured to assess the level of cell proliferation achieved. […]

[2] = Stability to proteolytic cleavage in fresh human plasma, Western blotting; settings: fresh human plasma plus PBS, 37° C., 24 hours
Experimental: Western blotting was then used to assess the survival of each peptide over those time intervals: A=0 minutes; B=30 minutes; C=2 hours; D=24 hours.
Stability may be assessed in terms of half-life in human plasma or by any other suitable technique. In particular, stability can be measured by assessing peptides' susceptibility to proteolytic cleavage in fresh human plasma according to the technique of Example 5.1 below, in which the plasma was stored until used at −70° C., 10 μg of peptide was added to 2 ml of plasma, plus 7 ml of PBS and the mixture was incubated at 37° C. for different time intervals. Western blotting was then used to detect each peptide over those time intervals.
The plasma was stored until used at −70° C. 10 μg of peptide were added to 2 ml of plasma, plus 7 ml of PBS. This mixture was incubated at 37° C. for different time intervals.
Like biological activity, stability was scored on a scale of 0 to 3.
Stability was determined as the amount of the peptide that remained intact and bound to the specific antibody in the following way:

Row | Substance | CA1 neurones as % of the control neuronal cell number (side not stated) (CA1 hippocampal neurones) | number of CA1 neurones left (side not stated) (CA1 hippocampal neurones) | proliferation of HSMM (BrdU incorporation), used in isolation [1] | peptide detected by Western blotting after 24 hours [2]
1 | IGF-I: IGF-I receptor binding domain encoded by Exons 3 and 4, common to all splice variants, approximately 70 amino acids [reference compound] | 15.8% | 19.2±7.3 neurones | no significant effect | –
2 | stabilised peptide: SEQ ID NO: 15 with D-Arginine at positions 14 and 15, N-terminus attached to PEG (Jeffamine) via succinic acid bridge, amidated at C-terminus ({PEG (Jeffamine)-Suc}-YQPPSTNKNTKSQ[dR][dR]KGSTFEEHK-NH2; reading uncertain) | – | – | – | detected in abundance
